For six compounds, IC50 results are on record in US9656991B2, “Inhibitors of glutaminyl cyclase” (PROBIODRUG AG, priority 2007, dated 2017).

Sequence of glutaminyl cyclase (QC) (Q16769 29-361): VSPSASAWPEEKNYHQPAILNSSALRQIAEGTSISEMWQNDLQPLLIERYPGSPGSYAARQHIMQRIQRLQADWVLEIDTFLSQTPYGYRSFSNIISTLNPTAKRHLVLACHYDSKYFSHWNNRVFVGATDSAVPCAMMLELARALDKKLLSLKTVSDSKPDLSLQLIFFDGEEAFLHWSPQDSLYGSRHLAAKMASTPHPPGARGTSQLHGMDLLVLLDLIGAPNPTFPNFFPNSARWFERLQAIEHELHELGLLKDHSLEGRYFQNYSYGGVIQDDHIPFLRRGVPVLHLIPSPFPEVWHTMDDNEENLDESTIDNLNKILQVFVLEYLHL

The assay addresses glutaminyl cyclase (QC) (Homo sapiens (Human), UniProt Q16769). Particulars: QC inhibition, 30° C.
Method: All measurements were performed with a BioAssay Reader HTS-7000Plus for microplates (Perkin Elmer) at 30° C. QC activity was evaluated fluorometrically using H-Gln-βNA. The samples consisted of 0.2 mM fluorogenic substrate, 0.25 U pyroglutamyl aminopeptidase (Unizyme, Hørsholm, Denmark) in 0.2 M Tris/HCl, pH 8.0 containing 20 mM EDTA and an appropriately diluted aliquot of QC in a final volume of 250 μl. Excitation/emission wavelengths were 320/410 nm. The assay reactions were initiated by addition of glutaminyl cyclase. QC activity was determined from a standard curve of β-naphthylamine under assay conditions. One unit is defined as the amount of QC catalyzing the formation of 1 μmol pGlu-βNA from H-Gln-βNA per minute under the described conditions.
In a second fluorometric assay, QC was activity determined using H-Gln-AMC as substrate. Reactions were carried out at 30° C. utilizing the NOVOStar reader for microplates (BMG labtechnologies). The samples consisted of varying concentrations of the fluorogenic substrate, 0.1 U pyroglutamyl aminopeptidase (Qiagen) in 0.05 M Tris/HCl, pH 8.0 containing 5 mM EDTA and an appropriately diluted aliquot of QC in a final volume of 250 μl. Excitation/emission wavelengths were 380/460 nm. The assay reactions were initiated by addition of glutaminyl cyclase. […] The kinetic data were evaluated using GraFit software.
Samples consisted of the respective QC substrate, 0.3 mM NADH, 14 mM α-Ketoglutaric acid and 30 U/ml glutamate dehydrogenase in a final volume of 250 μl. […] All samples were measured at 30° C., using either the [sequence]luor Plus or the Sunrise (both from TECAN) reader for microplates. Kinetic data was evaluated using GraFit software.
For inhibitor testing, the sample composition was the same as described above, except of the putative inhibitory compound added. For a rapid test of QC-inhibition, samples contained 4 mM of the respective inhibitor and a substrate concentration at 1 KM. For detailed investigations of the inhibition and determination of Ki-values, influence of the inhibitor on the auxiliary enzymes was investigated first. […] The inhibitory constant was evaluated by fitting the set of progress curves to the general equation for competitive inhibition using GraFit software.
Consider `S=C(Nc1ccc2[nH]cnc2c1)N1CCCC1` [Example 67, N-(1H-benzo[d]imidazol-5-yl)pyrrolidine-1-carbothioamide], for which half-maximal inhibition (IC50) required 258 µM.
Compound `Fc1ccc(N2CCN(C(=S)Nc3ccc4[nH]cnc4c3)CC2)cc1` [Example 70, N-(1H-benzo[d]imidazol-5-yl)-4-(4-fluorophenyl)piperazine-1-carbo-thioamide] returned an IC50 of 323 µM.
`CN(Cc1ccc(F)cc1)C(=S)Nc1ccc2[nH]cnc2c1` [Example 65, 1-(4-fluorobenzyl)-3-(1H-benzo[d]imidazol-5-yl)-1-methylthiourea]: inhibition was half-maximal at 404 µM (IC50).
As for `S=C(Nc1ccc2[nH]cnc2c1)N1CCCCC1` [Example 69, N-(1H-benzo[d]imidazol-5-yl)piperidine-1-carbothioamide], the figure is 172 µM; as for `S=C(Nc1ccc2[nH]cnc2c1)N1CCOCC1` [Example 68, N-(1H-benzo[d]imidazol-5-yl)morpholine-4-carbothioamide], 169 µM.
As for `Fc1ccc(C2CCCN2C(=S)Nc2ccc3[nH]cnc3c2)cc1` (stereo not drawn) [Example 66, N-(1H-benzo[d]imidazol-5-yl)-2-(4-fluorophenyl)pyrrolidine-1-carbo-thioamide], the figure is 128 µM.
